We go through 24 molecules from ChEMBL document CHEMBL5143613, “Discovery of 6,7-dihydro-5H-pyrrolo[3,4-d] pyrimidine derivatives as a new class of ATR inhibitors” (Bioorg Med Chem Lett, 2022).

Some results are limits rather than exact numbers.

Test [1] in a line: Inhibition of recombinant full-length human ATR M211T mutant using GST-cMyc-p53 as substrate incubated for 40 mins by HTRF assay. On the technique in general: In TR-FRET formats the signal depends on donor and acceptor labels being close together.
Test [2] relates to A2780. Kind of test: Anti-tumor activity against human A2780 cells assessed as inhibition of cell viability incubated for 72 hrs by MTT assay. The format is functional, cell-based. Particulars: A2780, 72 h. For orientation: Formazan colour is commonly taken as a measure of viable cells.
Test [3] deals with LoVo. Put plainly: Anti-tumor activity against human LoVo cells assessed as inhibition of cell viability incubated for 72 hrs by MTT assay. It counts as functional, cell-based.
Test [4] deals with MDA-MB-468. Kind of test: Anti-tumor activity against human MDA-MB-468 cells assessed as inhibition of cell viability incubated for 72 hrs by MTT assay. The format is functional, cell-based. Particulars: MDA-MB-468, 72 h.
For test [5], the system named is NCI-H23. Kind of test: Anti-tumor activity against human NCI-H23 cells assessed as inhibition of cell viability incubated for 72 hrs by MTT assay. Particulars: NCI-H23, 72 h. The format is functional, cell-based.
Test [6] relates to MDA-MB-436. Put plainly: Anti-tumor activity against human MDA-MB-436 cells assessed as inhibition of cell viability incubated for 72 hrs by MTT assay. Particulars: MDA-MB-436, 72 h. The format is functional, cell-based.
Test [7] has as its system CWR22R. Put plainly: Anti-tumor activity against human 22Rv1 cells assessed as inhibition of cell viability incubated for 72 hrs by MTT assay. The format is functional, cell-based. Particulars: 22Rv1, 72 h.
Test [8] relates to SW-620. Put plainly: Anti-tumor activity against human SW-620 cells assessed as inhibition of cell viability incubated for 72 hrs by MTT assay. It counts as functional, cell-based. Particulars: SW-620, 72 h.
For test [9], the system named is Granta-519. Kind of test: Anti-tumor activity against human Granta-519 cells assessed as inhibition of cell viability incubated for 72 hrs by MTT assay. The format is functional, cell-based. Particulars: Granta-519, 72 h.
Test [10] concerns the target Serine/threonine-protein kinase ATR (Homo sapiens) (UniProt Q13535). Put plainly: Inhibition of ATR in HU-treated human A2780 cells assessed as inhibition of ATR phosphorylation by Western blot assay. The format is cell-based. Particulars: dose 0.03-10 µM, DDE = dose-dependent effect. For orientation: Immunoblotting shows a protein as a band on a membrane.
In test [11] the target is Phosphatidylinositol 4-phosphate 3-kinase C2 domain-containing subunit alpha (Homo sapiens, UniProt O00443). Put plainly: Inhibition of human PI3K-C2alpha (299 to ens residues) using phosphatidylinositol-4, 5-bisphosphate as substrate incubated for 40 mins by HTRF assay.
The subject of test [12] is A2780. Kind of test: Anti-migration activity against human A2780 cells assessed as inhibition of cell migration at 0.1 to 1 uM by wound healing assay. The format is functional, cell-based. Particulars: dose 0.1-1 µM, time 24-48 hrs, TDE = time-dependent effect.
In test [13] the test system is A2780. Put plainly: Anti-migration activity against human A2780 cells assessed as inhibition of cell migration incubated for 24 to 48 hrs by wound healing assay. The format is functional, cell-based. Particulars: dose 0.1-1 µM, time 24-48 hrs, DDE = dose-dependent effect.
In test [14] the test system is A2780. Kind of test: Inhibition of colony formation in human A2780 cells by crystal violet staining based analysis. It counts as functional, cell-based. Particulars: dose 0.03-3 µM, DDE = dose-dependent effect.
Test [15] addresses Serine/threonine-protein kinase B-raf (Homo sapiens, UniProt P15056). Kind of test: Inhibition of human recombinant B-Raf (416 to end residues) using myelin basic protein as substrate in presence of [gamma-33P]ATP incubated for 40 mins by radiometric scintillation counting analysis.
Test [16] deals with PI3-kinase p110-delta/p85-alpha (Homo sapiens, UniProt O00329). Put plainly: Inhibition of recombinant human full length PI3K p110delta/p85a using phosphatidylinositol-4, 5-bisphosphate as substrate incubated for 40 mins in presence of [gamma33P]ATP by radiometric scintillation counting analysis. It counts as protein-complex assay.
For test [17], the target named is Serine/threonine-protein kinase ATR (Homo sapiens) (UniProt Q13535). Put plainly: Inhibition of ATR in HU-treated human A2780 cells assessed as inhibition of Chk1 phosphorylation at Ser345 residue by Western blot assay. It counts as cell-based. Particulars: dose 0.03-10 µM, DDE = dose-dependent effect.
Test [18] has the same target. Kind of test: Inhibition of ATR in human A2780 cells assessed as induction of DNA damage incubated for 3 days by DAPI staining based immunofluorescence analysis. The format is cell-based. Particulars: dose 1-10 µM, time 3.0 day, DDE = dose-dependent effect.
For test [19], the target named is Serine/threonine-protein kinase mTOR (Homo sapiens, UniProt P42345). Put plainly: Inhibition of human full length recombinant mTOR in presence of [gamma-33P]ATP incubated for 40 mins by radiometric scintillation counting analysis.
Test [20] deals with FKBP12A/mTOR (Homo sapiens, UniProt P42345+P62942). Kind of test: Inhibition of human full length recombinant mTOR/FKBP12 in presence of [gamma-33P]ATP incubated for 40 mins by radiometric scintillation counting analysis. It counts as protein-complex assay.
Chain of FKBP12A/mTOR (P62942 2-108 limits assumed, other chains not shown): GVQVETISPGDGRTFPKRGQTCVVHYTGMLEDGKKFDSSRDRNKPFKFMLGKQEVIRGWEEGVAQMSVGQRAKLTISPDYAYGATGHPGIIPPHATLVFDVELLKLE

Chain of Serine/threonine-protein kinase ATR (Homo sapiens) (Q13535 whole entry, looked up, the tested form may be a part): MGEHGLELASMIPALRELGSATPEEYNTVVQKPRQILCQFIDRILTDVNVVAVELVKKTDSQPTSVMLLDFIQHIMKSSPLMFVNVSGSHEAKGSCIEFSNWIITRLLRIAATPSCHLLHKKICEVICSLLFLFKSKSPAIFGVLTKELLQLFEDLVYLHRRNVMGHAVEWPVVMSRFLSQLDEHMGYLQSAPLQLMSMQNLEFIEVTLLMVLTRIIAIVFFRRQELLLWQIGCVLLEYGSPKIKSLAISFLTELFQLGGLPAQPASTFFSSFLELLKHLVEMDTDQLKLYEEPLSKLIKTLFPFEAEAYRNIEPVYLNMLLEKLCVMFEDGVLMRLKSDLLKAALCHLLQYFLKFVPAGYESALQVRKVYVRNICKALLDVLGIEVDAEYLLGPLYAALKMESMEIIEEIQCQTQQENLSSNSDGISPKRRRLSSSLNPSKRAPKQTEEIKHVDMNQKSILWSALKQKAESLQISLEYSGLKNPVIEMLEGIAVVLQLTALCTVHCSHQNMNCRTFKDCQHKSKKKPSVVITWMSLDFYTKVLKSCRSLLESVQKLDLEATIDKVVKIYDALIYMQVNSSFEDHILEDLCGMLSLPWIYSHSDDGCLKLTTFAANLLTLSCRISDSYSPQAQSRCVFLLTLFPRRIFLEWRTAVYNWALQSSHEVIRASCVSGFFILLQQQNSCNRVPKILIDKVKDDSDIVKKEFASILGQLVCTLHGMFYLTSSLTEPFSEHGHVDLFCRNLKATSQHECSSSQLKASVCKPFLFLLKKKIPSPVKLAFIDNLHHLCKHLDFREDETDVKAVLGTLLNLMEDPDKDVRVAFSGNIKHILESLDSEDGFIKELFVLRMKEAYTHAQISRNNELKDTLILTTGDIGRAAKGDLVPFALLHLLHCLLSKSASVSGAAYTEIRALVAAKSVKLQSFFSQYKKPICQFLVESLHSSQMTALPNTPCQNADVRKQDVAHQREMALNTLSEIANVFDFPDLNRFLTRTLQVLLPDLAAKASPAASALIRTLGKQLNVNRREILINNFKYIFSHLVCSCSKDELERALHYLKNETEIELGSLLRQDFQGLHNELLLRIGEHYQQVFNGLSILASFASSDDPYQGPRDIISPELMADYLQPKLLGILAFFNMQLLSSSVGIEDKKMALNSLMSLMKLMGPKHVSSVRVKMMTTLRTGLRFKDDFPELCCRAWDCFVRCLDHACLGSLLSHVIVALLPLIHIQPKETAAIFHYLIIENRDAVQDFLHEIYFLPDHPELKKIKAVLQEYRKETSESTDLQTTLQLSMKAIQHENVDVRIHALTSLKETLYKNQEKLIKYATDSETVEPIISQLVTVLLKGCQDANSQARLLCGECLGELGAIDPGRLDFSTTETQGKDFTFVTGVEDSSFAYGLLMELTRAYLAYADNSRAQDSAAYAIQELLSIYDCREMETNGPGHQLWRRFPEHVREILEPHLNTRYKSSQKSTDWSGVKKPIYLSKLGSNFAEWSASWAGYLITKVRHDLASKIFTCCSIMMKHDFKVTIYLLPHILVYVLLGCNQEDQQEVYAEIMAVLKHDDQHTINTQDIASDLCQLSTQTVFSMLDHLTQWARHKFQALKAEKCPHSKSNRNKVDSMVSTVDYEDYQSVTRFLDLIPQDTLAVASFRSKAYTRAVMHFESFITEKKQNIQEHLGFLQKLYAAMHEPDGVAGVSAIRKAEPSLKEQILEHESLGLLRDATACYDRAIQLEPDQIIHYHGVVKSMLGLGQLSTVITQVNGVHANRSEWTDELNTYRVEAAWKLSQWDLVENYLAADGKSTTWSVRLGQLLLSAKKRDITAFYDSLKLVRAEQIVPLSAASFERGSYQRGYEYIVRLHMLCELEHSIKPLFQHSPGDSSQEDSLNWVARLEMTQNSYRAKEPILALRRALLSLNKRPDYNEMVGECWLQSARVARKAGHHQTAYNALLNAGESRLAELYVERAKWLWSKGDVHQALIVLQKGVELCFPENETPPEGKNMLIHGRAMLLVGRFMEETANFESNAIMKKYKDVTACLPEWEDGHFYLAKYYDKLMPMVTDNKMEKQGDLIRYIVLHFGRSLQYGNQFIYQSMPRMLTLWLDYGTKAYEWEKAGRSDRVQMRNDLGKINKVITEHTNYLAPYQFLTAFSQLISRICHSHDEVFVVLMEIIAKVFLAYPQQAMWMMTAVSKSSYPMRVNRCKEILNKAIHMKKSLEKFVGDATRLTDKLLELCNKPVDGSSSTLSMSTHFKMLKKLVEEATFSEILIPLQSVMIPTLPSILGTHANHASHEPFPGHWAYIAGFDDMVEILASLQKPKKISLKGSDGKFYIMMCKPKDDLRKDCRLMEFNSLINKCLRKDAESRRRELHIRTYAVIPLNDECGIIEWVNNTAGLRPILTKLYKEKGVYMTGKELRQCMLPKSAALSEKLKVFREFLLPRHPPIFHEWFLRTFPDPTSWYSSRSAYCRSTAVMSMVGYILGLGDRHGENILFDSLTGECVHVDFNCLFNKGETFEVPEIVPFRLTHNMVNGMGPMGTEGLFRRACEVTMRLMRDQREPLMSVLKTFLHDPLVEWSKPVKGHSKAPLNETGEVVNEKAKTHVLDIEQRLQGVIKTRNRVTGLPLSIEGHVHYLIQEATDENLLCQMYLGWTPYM
Chain of PI3-kinase p110-delta/p85-alpha (P27986 whole entry): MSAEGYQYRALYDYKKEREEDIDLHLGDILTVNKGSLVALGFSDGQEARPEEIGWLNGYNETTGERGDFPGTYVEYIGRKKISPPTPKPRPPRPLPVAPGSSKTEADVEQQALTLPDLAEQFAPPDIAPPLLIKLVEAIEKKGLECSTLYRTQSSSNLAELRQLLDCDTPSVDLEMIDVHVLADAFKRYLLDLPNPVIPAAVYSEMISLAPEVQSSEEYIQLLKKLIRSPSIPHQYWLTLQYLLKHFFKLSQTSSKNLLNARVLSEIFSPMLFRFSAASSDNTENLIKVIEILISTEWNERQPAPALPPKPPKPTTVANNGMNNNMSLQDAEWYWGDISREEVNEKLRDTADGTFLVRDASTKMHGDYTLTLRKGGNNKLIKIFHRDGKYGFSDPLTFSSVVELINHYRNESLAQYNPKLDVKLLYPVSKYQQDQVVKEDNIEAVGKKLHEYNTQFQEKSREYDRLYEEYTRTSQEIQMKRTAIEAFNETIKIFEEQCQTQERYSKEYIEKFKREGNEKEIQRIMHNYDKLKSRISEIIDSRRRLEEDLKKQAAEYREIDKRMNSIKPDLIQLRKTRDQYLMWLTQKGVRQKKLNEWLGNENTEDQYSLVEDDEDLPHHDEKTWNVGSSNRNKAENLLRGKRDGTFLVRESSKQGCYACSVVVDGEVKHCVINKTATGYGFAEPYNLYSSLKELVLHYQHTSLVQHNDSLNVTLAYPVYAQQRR
Chain of PI3-kinase p110-delta/p85-alpha (O00329 whole entry): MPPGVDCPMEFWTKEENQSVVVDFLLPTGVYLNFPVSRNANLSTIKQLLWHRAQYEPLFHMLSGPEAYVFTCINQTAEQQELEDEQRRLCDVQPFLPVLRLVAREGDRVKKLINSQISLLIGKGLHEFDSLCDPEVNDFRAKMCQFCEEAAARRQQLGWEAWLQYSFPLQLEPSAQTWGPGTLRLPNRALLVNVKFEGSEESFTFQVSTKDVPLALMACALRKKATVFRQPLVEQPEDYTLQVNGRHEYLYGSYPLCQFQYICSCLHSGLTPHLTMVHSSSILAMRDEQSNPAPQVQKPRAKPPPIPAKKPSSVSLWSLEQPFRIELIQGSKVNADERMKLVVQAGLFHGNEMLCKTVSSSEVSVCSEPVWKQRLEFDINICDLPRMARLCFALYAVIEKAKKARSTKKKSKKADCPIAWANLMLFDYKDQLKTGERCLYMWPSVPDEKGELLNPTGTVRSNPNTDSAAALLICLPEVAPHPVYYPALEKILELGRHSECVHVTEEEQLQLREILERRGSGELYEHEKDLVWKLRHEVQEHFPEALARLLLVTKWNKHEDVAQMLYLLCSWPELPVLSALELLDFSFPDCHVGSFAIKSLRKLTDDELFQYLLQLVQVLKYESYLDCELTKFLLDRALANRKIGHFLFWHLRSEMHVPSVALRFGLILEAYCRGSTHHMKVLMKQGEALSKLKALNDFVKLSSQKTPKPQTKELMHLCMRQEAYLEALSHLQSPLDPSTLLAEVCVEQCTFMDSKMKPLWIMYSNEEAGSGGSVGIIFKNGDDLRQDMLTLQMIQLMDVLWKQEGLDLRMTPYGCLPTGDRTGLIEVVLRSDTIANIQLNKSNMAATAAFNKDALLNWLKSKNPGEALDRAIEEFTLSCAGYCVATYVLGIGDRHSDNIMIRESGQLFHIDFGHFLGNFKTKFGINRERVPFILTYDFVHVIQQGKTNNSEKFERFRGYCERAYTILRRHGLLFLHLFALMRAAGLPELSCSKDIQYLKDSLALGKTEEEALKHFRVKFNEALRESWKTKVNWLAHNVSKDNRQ

Usually IC50 stands for the concentration that gives 50% inhibition. Regarding `C[C@H]1COCCN1c1nc(-c2c[nH]c3ccccc23)nc2c1CN(S(=O)(=O)C1CC1)C2`, in test [1], the IC50 came to 4950 nM.
Same read-out and setting: the value for `C[C@@H]1COCCN1c1nc(-c2c[nH]c3ccccc23)nc2c1CN(C(=O)C(C)(C)C(F)(F)F)C2` was 38 nM.
Turning to `O=S(=O)(C1CC1)N1Cc2nc(-c3c[nH]c4ccccc34)nc(NC3COC3)c2C1`, in [1], the half-maximal inhibitory concentration (IC50) was 10000 nM.
Regarding `C[C@@H]1COCCN1c1nc(-c2cnc3[nH]ccc3c2)nc2c1CN(S(=O)(=O)C1CC1)C2`, the IC50 in test [1] is 2710 nM.
As for `C[C@H](CO)Nc1nc(-c2c[nH]c3ccccc23)nc2c1CN(S(=O)(=O)C1CC1)C2`, the IC50 in test [1] came out at 8360 nM.
As for `O=S(=O)(C1CC1)N1Cc2nc(-c3c[nH]c4ccccc34)nc(N3CC4CC3CO4)c2C1` (centres undefined), the IC50 in [1] was greater than 10000 nM.
`C[C@@H]1COCCN1c1nc(-c2c[nH]c3ccccc23)nc2c1CN(C(=O)C1CCNCC1)C2`: the IC50 in test [1] is 601 nM.
Still for that read-out and setting: the value for `C[C@@H]1COCCN1c1nc(-c2c[nH]c3ccccc23)nc2c1CN(S(=O)(=O)N(C)C)C2` was 18 nM; that for `C[C@@H]1COCCN1c1nc(-c2cccc3[nH]ccc23)nc2c1CN(S(=O)(=O)C1CC1)C2` was 53 nM.
The same measure, in the same setting: the value for `C[C@@H]1COCCN1c1nc(-c2cc[nH]n2)nc2c1CN(S(=O)(=O)C1CC1)C2` was greater than 10000 nM.
The same measure, in the same setting: next, `O=S(=O)(C1CC1)N1Cc2nc(-c3c[nH]c4ccccc34)nc(N3CC4CCC(C3)O4)c2C1`: 544 nM; `CCC(C)C(=O)N1Cc2nc(-c3c[nH]c4ccccc34)nc(N3CCOC[C@H]3C)c2C1` (some centres undefined): 26 nM.
As for `O=S(=O)(C1CC1)N1Cc2nc(-c3c[nH]c4ccccc34)nc(N3C4CCC3COC4)c2C1`, in [1], the IC50 turned out to be 1390 nM.
For the molecule `C[C@@H]1COCCN1c1nc(-c2c[nH]c3ccccc23)nc2c1CN(C(=O)C(C)(C)C)C2`, the half-maximal inhibitory concentration (IC50) in test [1] is 25 nM.
Regarding `C[C@@H]1COCCN1c1nc(-c2c[nH]c3ccccc23)nc2c1CN(S(=O)(=O)C1CCCCC1)C2`, the IC50 in test [1] was 20 nM.
Take `O=S(=O)(C1CC1)N1Cc2nc(-c3c[nH]c4ccccc34)nc(N3CCOCC3)c2C1`: the half-maximal inhibitory concentration (IC50) in [1] is 891 nM.
As for `C[C@@H]1COCCN1c1nc(-c2c[nH]c3ncccc23)nc2c1CN(S(=O)(=O)C1CC1)C2`, the half-inhibitory concentration (IC50) in [1] is 2470 nM.
Still for that read-out and setting: the value for `O=S(=O)(C1CC1)N1Cc2nc(-c3c[nH]c4ccccc34)nc(N3C[C@H]4COC[C@H]4C3)c2C1` was greater than 10000 nM.
With `C[C@@H]1CN(c2nc(-c3c[nH]c4ccccc34)nc3c2CN(S(=O)(=O)C2CC2)C3)C[C@H](C)O1`, in test [1], the half-inhibitory concentration (IC50) is greater than 10000 nM.
Turning to `C[C@@H]1COCCN1c1nc(-c2c[nH]c3ccccc23)nc2c1CN(C(=O)C1CC1)C2`, the IC50 in test [2] amounted to 1190 nM; in test [1], 6 nM; in [3], 2630 nM; in test [4], 1820 nM; in test [5], 3.35 µM; in [6], 1290 nM. Besides, the IC50 in [7] amounted to 1450 nM; in [8], 3.96 µM; in [9], 1630 nM.
As to `CC(C)S(=O)(=O)N1Cc2nc(-c3c[nH]c4ccccc34)nc(N3CCOC[C@H]3C)c2C1`, the concentration for half-maximal inhibition (IC50) in [2] worked out at 670 nM; in test [1], 7 nM; in test [3], 840 nM; in [4] it was 1420 nM; in test [5] it was 2.11 µM; in test [6], 950 nM. Besides, the IC50 in [11] worked out at 2720 nM; in [7] it was 1340 nM; in [8] it was 2.15 µM; in test [9] it was 1020 nM; in [15], 9.44 µM; in test [16], 2150 nM. For the same molecule, the IC50 was 136 nM in [19] and 125 nM in [20]. In addition, the inhibition result in test [10], in test [14], in test [17] and in test [18] was “Dde” throughout. The Activity entry was “Tde” in test [12] and “Dde” in test [13].
As for `C[C@@H]1COCCN1c1nc(-c2c[nH]c3ccccc23)nc2c1CN(S(=O)(=O)C1CC1)C2`, the half-inhibitory concentration (IC50) in test [2] amounted to 1350 nM; in test [1], 4 nM; in test [3] it was 2110 nM; in [4] it was 1740 nM; in test [5], 3.48 µM; in test [6], 1880 nM. Moreover, the IC50 turned out to be 2480 nM in [7], 3.84 µM in [8] and 1860 nM in test [9].
For `C[C@@H]1COCCN1c1nc(-c2c[nH]c3ccccc23)nc2c1CN(C(=O)[C@H]1CCCO1)C2`, the concentration for half-maximal inhibition (IC50) in test [1] turned out to be 11 nM.
For the molecule `C[C@@H]1COCCN1c1nc(-c2c[nH]c3ccccc23)nc2c1CN(C(=O)C(C)(C)CCl)C2`, in [1], the IC50 was 10 nM.
